According to patent US20250147039A1, “Compounds for complexation of rare earth elements and/or s-, p-, d- block metals, their coordination compounds, peptide conjugates, method of their preparation and use thereof” (USTAV ORGANICKE CHEMIE A BIOCHEMIE AV CR V.V.I., priority 2021, published 2025):

Columns and labels:
[1] = Formation of 1,5-cz-[Ln(Lig)] from Lig and Ln^III ions (metal dependent click-zip), MOPS/NaOH buffer pH 7.0, analytical HPLC (Charts 1, 2); settings: MOPS/NaOH buffer pH 7.0
[2] = Formation of 1,5-cz-[M(Lig)] from Lig and M^III ions (metal dependent click-zip) (Charts 4, 5); type: physicochemical; settings: MOPS/NaOH buffer pH 7.0; for conversion to 1,5-cz-[M(Lig)], Sc^III / conversion to 1,5-cz-[M(Lig)], Y^III: TD728, TD827 in 50% i-PrOH; for conversion to 1,5-cz-[M(Lig)], Y^III: TD714 sum of two diastereoisomers

conversion to 1,5-cz-[Ln(Lig)] with hydrolysed group in the side chain, Ce^III ([1]; after 1 week at 80° C.): 37%
conversion to 1,5-cz-[Ln(Lig)], Ce^III ([1]; after 1 week at 80° C.): 0%
conversion to 1,5-cz-[Ln(Lig)] with hydrolysed group in the side chain, Ce^III ([1]; after 1 hour at 80° C.): 0%
conversion to 1,5-cz-[Ln(Lig)], Ce^III ([1]; after 1 hour at 80° C.): 0%
conversion to 1,5-cz-[Ln(Lig)] with hydrolysed group in the side chain, Dy^III ([1]; after 1 week at 80° C.): 94%
conversion to 1,5-cz-[Ln(Lig)], Dy^III ([1]; after 1 week at 80° C.): 0%
conversion to 1,5-cz-[Ln(Lig)] with hydrolysed group in the side chain, Dy^III ([1]; after 1 hour at 80° C.): 8%
conversion to 1,5-cz-[Ln(Lig)], Dy^III ([1]; after 1 hour at 80° C.): 5%
conversion to 1,5-cz-[Ln(Lig)] with hydrolysed group in the side chain, Er^III ([1]; after 1 week at 80° C.): 94%
conversion to 1,5-cz-[Ln(Lig)], Er^III ([1]; after 1 week at 80° C.): 0%
conversion to 1,5-cz-[Ln(Lig)] with hydrolysed group in the side chain, Er^III ([1]; after 1 hour at 80° C.): 19%
conversion to 1,5-cz-[Ln(Lig)], Er^III ([1]; after 1 hour at 80° C.): 12%
conversion to 1,5-cz-[Ln(Lig)] with hydrolysed group in the side chain, Eu^III ([1]; after 1 week at 80° C.): 91%
conversion to 1,5-cz-[Ln(Lig)], Eu^III ([1]; after 1 week at 80° C.): 0%
conversion to 1,5-cz-[Ln(Lig)] with hydrolysed group in the side chain, Eu^III ([1]; after 1 hour at 80° C.): 2%
conversion to 1,5-cz-[Ln(Lig)], Eu^III ([1]; after 1 hour at 80° C.): 2%
conversion to 1,5-cz-[Ln(Lig)] with hydrolysed group in the side chain, Gd^III ([1]; after 1 week at 80° C.): 92%
conversion to 1,5-cz-[Ln(Lig)], Gd^III ([1]; after 1 week at 80° C.): 0%
conversion to 1,5-cz-[Ln(Lig)] with hydrolysed group in the side chain, Gd^III ([1]; after 1 hour at 80° C.): 3%
conversion to 1,5-cz-[Ln(Lig)], Gd^III ([1]; after 1 hour at 80° C.): 2%
conversion to 1,5-cz-[Ln(Lig)] with hydrolysed group in the side chain, Ho^III ([1]; after 1 week at 80° C.): 94%
conversion to 1,5-cz-[Ln(Lig)], Ho^III ([1]; after 1 week at 80° C.): 0%
conversion to 1,5-cz-[Ln(Lig)] with hydrolysed group in the side chain, Ho^III ([1]; after 1 hour at 80° C.): 13%
conversion to 1,5-cz-[Ln(Lig)], Ho^III ([1]; after 1 hour at 80° C.): 7%
conversion to 1,5-cz-[Ln(Lig)] with hydrolysed group in the side chain, La^III ([1]; after 1 week at 80° C.): 40%
conversion to 1,5-cz-[Ln(Lig)], La^III ([1]; after 1 week at 80° C.): 0%
conversion to 1,5-cz-[Ln(Lig)] with hydrolysed group in the side chain, La^III ([1]; after 1 hour at 80° C.): 0%
conversion to 1,5-cz-[Ln(Lig)], La^III ([1]; after 1 hour at 80° C.): 0%
conversion to 1,5-cz-[Ln(Lig)] with hydrolysed group in the side chain, Lu^III ([1]; after 1 week at 80° C.): 97%
conversion to 1,5-cz-[Ln(Lig)], Lu^III ([1]; after 1 week at 80° C.): 0%
conversion to 1,5-cz-[Ln(Lig)] with hydrolysed group in the side chain, Lu^III ([1]; after 1 hour at 80° C.): 30%
conversion to 1,5-cz-[Ln(Lig)], Lu^III ([1]; after 1 hour at 80° C.): 26%
conversion to 1,5-cz-[Ln(Lig)] with hydrolysed group in the side chain, Nd^III ([1]; after 1 week at 80° C.): 73%
conversion to 1,5-cz-[Ln(Lig)], Nd^III ([1]; after 1 week at 80° C.): 0%
conversion to 1,5-cz-[Ln(Lig)] with hydrolysed group in the side chain, Nd^III ([1]; after 1 hour at 80° C.): 0%
conversion to 1,5-cz-[Ln(Lig)], Nd^III ([1]; after 1 hour at 80° C.): 1%
conversion to 1,5-cz-[Ln(Lig)] with hydrolysed group in the side chain, Pr^III ([1]; after 1 week at 80° C.): 62%
conversion to 1,5-cz-[Ln(Lig)], Pr^III ([1]; after 1 week at 80° C.): 0%
conversion to 1,5-cz-[Ln(Lig)] with hydrolysed group in the side chain, Pr^III ([1]; after 1 hour at 80° C.): 0%
conversion to 1,5-cz-[Ln(Lig)], Pr^III ([1]; after 1 hour at 80° C.): 0%
conversion to 1,5-cz-[Ln(Lig)] with hydrolysed group in the side chain, Sm^III ([1]; after 1 week at 80° C.): 88%
conversion to 1,5-cz-[Ln(Lig)], Sm^III ([1]; after 1 week at 80° C.): 0%
conversion to 1,5-cz-[Ln(Lig)] with hydrolysed group in the side chain, Sm^III ([1]; after 1 hour at 80° C.): 2%
conversion to 1,5-cz-[Ln(Lig)], Sm^III ([1]; after 1 hour at 80° C.): 1%
conversion to 1,5-cz-[Ln(Lig)] with hydrolysed group in the side chain, Tb^III ([1]; after 1 week at 80° C.): 93%
conversion to 1,5-cz-[Ln(Lig)], Tb^III ([1]; after 1 week at 80° C.): 0%
conversion to 1,5-cz-[Ln(Lig)] with hydrolysed group in the side chain, Tb^III ([1]; after 1 hour at 80° C.): 6%
conversion to 1,5-cz-[Ln(Lig)], Tb^III ([1]; after 1 hour at 80° C.): 3%
conversion to 1,5-cz-[Ln(Lig)] with hydrolysed group in the side chain, Tm^III ([1]; after 1 week at 80° C.): 95%
conversion to 1,5-cz-[Ln(Lig)], Tm^III ([1]; after 1 week at 80° C.): 0%
conversion to 1,5-cz-[Ln(Lig)] with hydrolysed group in the side chain, Tm^III ([1]; after 1 hour at 80° C.): 26%
conversion to 1,5-cz-[Ln(Lig)], Tm^III ([1]; after 1 hour at 80° C.): 19%
conversion to 1,5-cz-[Ln(Lig)] with hydrolysed group in the side chain, Yb^III ([1]; after 1 week at 80° C.): 96%
conversion to 1,5-cz-[Ln(Lig)], Yb^III ([1]; after 1 week at 80° C.): 0%
conversion to 1,5-cz-[Ln(Lig)] with hydrolysed group in the side chain, Yb^III ([1]; after 1 hour at 80° C.): 30%
conversion to 1,5-cz-[Ln(Lig)], Yb^III ([1]; after 1 hour at 80° C.): 24%
conversion to 1,5-cz-[Ln(Lig)] with hydrolysed group in the side chain, Sc^III ([2]; 1 week at 80° C.): 17%
conversion to 1,5-cz-[Ln(Lig)] with hydrolysed group in the side chain, Y^III ([2]; 1 week at 80° C.): 95%
conversion to 1,5-cz-[M(Lig)], Sc^III ([2]; 1 week at 80° C.): 0%
conversion to 1,5-cz-[M(Lig)], Y^III ([2]; 1 week at 80° C.): 0%
conversion to 1,5-cz-[Ln(Lig)] with hydrolysed group in the side chain, Sc^III ([2]; 1 hour at 80° C.): 0%
conversion to 1,5-cz-[Ln(Lig)] with hydrolysed group in the side chain, Y^III ([2]; 1 hour at 80° C.): 12%
conversion to 1,5-cz-[M(Lig)], Sc^III ([2]; 1 hour at 80° C.): 1%
conversion to 1,5-cz-[M(Lig)], Y^III ([2]; 1 hour at 80° C.): 6%
SMILES: C#Cc1cccc(CN2CCN(CC(=O)O)CCN(Cc3cc(C(=O)OC)cc(CN=[N+]=[N-])n3)CCN(CC(=O)O)CC2)n1 [TD1092]
